Literature values as cited in patent US7829544B2, “Aqueous solution preparation containing aminoglycoside antibiotic and bromfenac” (Senju Pharmaceutical Co., Ltd., priority 2003, dated 2010).

Conditions: tobramycin combined with diclofenac sodium

## NC[C@H]1O[C@H](O[C@H]2[C@H](O)[C@@H](O[C@H]3O[C@H](CO)[C@@H](O)[C@H](N)[C@H]3O)[C@H](N)C[C@@H]2N)[C@H](N)C[C@@H]1O [tobramycin]
  behaviour of the combination solution: precipitation or suspension formation occurs
